“Also recorded” adds a separate entry of the source.

For series [1] the following is noted: commercial dyes, solvent not stated; cited from earlier work.
Series [2] can be described thus: Fluorescence spectra, quantum yield and excited state lifetime. Format: physicochemical. To be noted: for Φfl. / Φfl. of the conjugate: as fraction; for fluorescence quantum yield of the antibody conjugates obtained from the dye: after attaching to antibodies; for λem of the conjugate / Φfl. of the conjugate: conjugate with sheep anti-mouse IG. On the procedure:
(§1) UV-visible absorption spectra were recorded on a Varian Cary 4000 UV-Vis spectrophotometer, and fluorescence spectra on a Varian Cary Eclipse fluorescence spectrophotometer. Reactions were carried out with magnetic stirring in Schlenk flasks equipped with septa or reflux condensers with bubble-counters under argon using a standard manifold with vacuum and argon lines. The MICROTOF spectrometer equipped with ESI ion source Apollo and direct injector with LC autosampler Agilent RR 1200 was used for obtaining mass spectra and high resolution mass-spectra (ESI-HRMS). ESI-HRMS were obtained also on APEX IV spectrometer (Bruker). ESI spectra were also obtained on a Varian 500MS spectrometer in some cases. HPLC system (Knauer): Smartline pump 1000 (2×), UV detector 2500, column thermostat 4000 (25° C.), mixing chamber, injection valve with 20 and 100 μL loop for analytical and preparative columns, respectively; 6-port-3-channel switching valve; analytical column: Eurospher-100 C18, 5 μm, 250×4 mm, 1.2 mL/min; preparative column: Eurospher-100-5 C18, 5 μm, 250×8 mm, 4 mL/min; solvent A: water+0.1% v/v trifluoroacetic acid (TFA); solvent B: CH3CN+0.1% v/v TFA; detection at 636 nm (if not stated otherwise). Normal phase analytical TLC was performed on MERCK ready-to-use plates with silica gel 60 (F254).

The next series can be described thus: Solubility (qualitative). Format: physicochemical. The note with it: for solubility in other solvents and buffers: solvents named in the value.
Series [3] can be described thus: UV-visible absorption spectra. Format: physicochemical. The note with it: for λabs of the conjugate: conjugate with sheep anti-mouse IG. On the procedure: as §1

As to `CC1(C)C=C(CS(=O)(=O)O)c2cc3c(C(F)(F)F)cc(=O)oc3cc2N1CCCCCC(=O)ON1C(=O)CCC1=O.CCN(CC)CC` [Alexa Fluor™ 430], in series [1], the absorption maximum is listed as 434 nm and the emission maximum was 539 nm.
For the molecule `CC(C)(C)OC(=O)CCCN1c2cc3oc(=O)c(-c4ccncc4)cc3cc2C(COP(=O)(OC(C)(C)C)OC(C)(C)C)=CC1(C)C` [Compound 10], in series [2], the “fluorescence quantum yields (in words)” value is reported as “high”. In series [2] (MeOH), the “Φfl (fluorescence quantum yield)” value stood at 82%, the “λmax (fl.)” value is reported as 501 nm and the Φfl. is recorded as 0.82. Further, the “Remarks: solubility in water” value in “Solubility (qualitative)” (water) is given as “Low solubility in water”. In series [3] (MeOH), the ε was 30700 M⁻¹ cm⁻¹, the “ε · 10^−4” value was 3.07 M^−1 cm^−1 and the “λmax (abs.)” value is 430 nm.
For `CC1(C)C=C(COP(=O)(O)O)c2cc3cc(-c4ccncc4)c(=O)oc3cc2N1CCCC(=O)O` [Compound 11], in series [2], the Stokes shift is given as 79 nm, the “fluorescence quantum yields (in words)” value is “high” and the “fluorescence quantum yield of the antibody conjugates obtained from the dye” value (from here on “fluorescence quantum yield … from the dye”) amounted to 30%. For the same molecule, in series [2] (PBS (7.4)), the “Φfl (fluorescence quantum yield)” value was determined as 68%, the “λmax (fl.)” value stood at 515 nm and the “τ1 (lifetime of the excited state)” value is listed as 3.3 ns. This molecule also registered a Φfl. in series [2] (PBS buffer at pH 7.4) of 0.68. In series [3] (PBS (7.4)), the “ε · 10^−4” value turned out to be 2.27 M^−1 cm^−1 and the “λmax (abs.)” value stood at 436 nm. The molecule further displayed a ε in series [3] (PBS buffer at pH 7.4) of 22700 M⁻¹ cm⁻¹.
On to `CC1(C)C=C(COP(=O)(O)O)c2cc3cc(-c4ccncc4)c(=O)oc3cc2N1CCCC(=O)ON1C(=O)CCC1=O` [Compound 12], for which, in series [2] (PBS buffer at pH 7.4), the “λem of the conjugate” value is listed as 513 nm and the “Φfl. of the conjugate” value was 0.30. Further, in series [3] (PBS buffer at pH 7.4), the “λabs of the conjugate” value worked out at 439 nm.
As to `CCOC(=O)CCCN1c2cc3oc(=O)c(-c4ccncc4)cc3cc2C(C)=CC1(C)C` [Compound 18, reference compound], the “fluorescence quantum yields (in words)” value in series [2] is recorded as “high”. Moreover, in series [2] (MeOH), the “Φfl (fluorescence quantum yield)” value was found to be 77%, the “λmax (fl.)” value turned out to be 507 nm and the Φfl. stood at 0.77. Moreover, the “Remarks: solubility in water” value in “Solubility (qualitative)” (water) is on record as “Low solubility in water”. For the same molecule, in series [3] (MeOH), the ε came to 33400 M⁻¹ cm⁻¹, the “ε · 10^−4” value is 3.34 M^−1 cm^−1 and the “λmax (abs.)” value is recorded as 437 nm.
As for `CC1(C)C=C(CS(=O)(=O)O)c2cc3cc(-c4ccncc4)c(=O)oc3cc2N1CCCC(=O)O` [Compound 20-H, reference compound], in series [2], the “fluorescence quantum yields (in words)” value is reported as “high” and the “fluorescence quantum yield … from the dye” value was found to be 18%. In series [2] (MeOH), the “Φfl (fluorescence quantum yield)” value is on record as 56%, the “λmax (fl.)” value is reported as 510 nm and the Φfl. was 0.56. Further, in series [2] (PBS (7.4)), the “Φfl (fluorescence quantum yield)” value came to 57% and the “λmax (fl.)” value stood at 515 nm. In series [2] (PBS buffer at pH 7.4), this molecule gave a Φfl. of 0.57. Moreover, in series [3] (MeOH), the ε was determined as 25900 M⁻¹ cm⁻¹, the “ε · 10^−4” value came out at 2.59 M^−1 cm^−1 and the “λmax (abs.)” value is 436 nm. Also, in series [3] (PBS (7.4)), the “ε · 10^−4” value turned out to be 3.12 M^−1 cm^−1 and the “λmax (abs.)” value is 436 nm. Moreover, in series [3] (PBS buffer at pH 7.4), the ε is 31200 M⁻¹ cm⁻¹.
As for `CC1(C)C=C(CS(=O)(=O)O)c2cc3cc(-c4ccncc4)c(=O)oc3cc2N1CCCC(=O)ON1C(=O)CCC1=O` [Compound 20-NHS, reference compound], in series [2] (PBS buffer at pH 7.4), the “λem of the conjugate” value is listed as 512 nm and the “Φfl. of the conjugate” value turned out to be 0.18. For the same molecule, the “λabs of the conjugate” value in series [3] (PBS buffer at pH 7.4) worked out at 437 nm.
With `CN(CCCC(=O)O)C(=O)c1c(F)c(F)c(F)c(F)c1C1=c2cc3c4c(c2Oc2c1cc1c5c2CCCN5C(C)(C)C=C1CO)CCC[N+]=4C(C)(C)C=C3CO` [Compound 24-H], in series [2] (H2O), the “Φfl (fluorescence quantum yield)” value was 85% and the “λmax (fl.)” value is 654 nm. The “fluorescence quantum yield … from the dye” value in series [2] is given as 66%. Further, the “solubility in aqueous buffers” value in “Solubility (qualitative)” (aqueous buffers) is “low solubility in aqueous buffers”. Moreover, in the series “Solubility (qualitative)”, the “solubility in other solvents and buffers” value is “well-soluble in MeOH, CH3CN, and chlorinated solvents”. For the same molecule, in the series “Solubility (qualitative)” (water), the “Remarks: solubility in water” value is “Limited solubility in water” and the “solubility in water” value is on record as “slightly soluble in water”. Moreover, in series [3] (H2O), the “ε · 10^−4” value was determined as 8.6 M^−1 cm^−1 and the “λmax (abs.)” value is listed as 632 nm.
Take `CN(CCCC(=O)O)C(=O)c1c(F)c(F)c(F)c(F)c1C1=c2cc3c4c(c2Oc2c1cc1c5c2CCCN5C(C)(C)C=C1COP(=O)(O)O)CCC[N+]=4C(C)(C)C=C3COP(=O)([O-])O` [Compound 26-H]: in series [2] (H2O), the “Φfl (fluorescence quantum yield)” value came out at 83% and the “λmax (fl.)” value was 655 nm. Also, in series [2] (H2O, monoexponential fit), the “τ1 (lifetime of the excited state)” value worked out at 3.0 ns. Also, in series [2], the “fluorescence quantum yield … from the dye” value came out at 51%. Also, the “solubility in other solvents and buffers” value in “Solubility (qualitative)” was “well-soluble in aq. NaHCO3, alkali, Et3N, and PBS buffers, MeOH; also recorded: insoluble in acetone, CH3CN, chloroform”. In series [3] (H2O), the “ε · 10^−4” value was found to be 7.5 M^−1 cm^−1 and the “λmax (abs.)” value came to 635 nm.

The values above are taken from patent US9164086B2, “Fluorescent dyes with phosphorylated hydroxymethyl groups and their use in light microscopy and imaging techniques” (Max-Planck-Gesellschaft zur Foerderung der Wissenschaften …, priority 2011, dated 2015).
